The values that follow come from patent publication US20240197728A1, “METHODS AND PHARMACEUTICAL COMPOSITIONS FOR TREATING REFRACTORY EPILEPSY” (INSERM (INSTITUT NATIONAL DE LA SANTÉ ET DE LA RECHERCHE …, priority 2021, published 2024).

The subject of this test is SPAK. Description: Immunoblot of SPAK phosphorylation and expression in hippocampo-cortical slices. The format is cell-based, rat. As to conditions: vs DMSO. The procedure:
For all experiments on hippocampal cultures, neurons were pre-incubated for 2 hours with either DMSO, PCPZ or CLP257 in a CO2 incubator set at 37° C. Drugs were added directly to the culture medium. For electrophysiology experiments, neurons were also recorded in presence of these drugs in the bath. For biochemistry experiments on rat hippocampo-cortical slices, slices were incubated with either DMSO (vehicle), CLP257, PCPZ, WNK463 or sodium orthovanadate for 2 hours in interface chambers set at 37° C. For human tissue experiments, slices were pre-incubated with either DMSO, CLP257 or PCPZ for 2 hours in interface chambers set at 37° C. and then also recorded in presence of these compounds.
8-weeks old Sprague Dawley male rats were anesthetized by intraperitoneal ketamine/xylazine injection (120/10 mg/kg) and perfused transcardially with ice-cold (0-4° C.), oxygenated solution (O2/CO2 95/5%), containing (in mM): N-methyl-d-glucamine 93, KCl 2.5, NaH2PO4 1.2, NaHCO330, HEPES 20, D-glucose 20, ascorbic acid 5, sodium pyruvate 3, MgSO4 10 and CaCl2) 0.5 (300-310 mOsm, pH7.4). Brains were removed and transverse hippocampo-cortical slices (400 m thick) were prepared in the same solution using a vibratome (HM650V, Microm). Slices were then incubated for 2-hours with DMSO, the KCC2 enhancers (CLP257, PCPZ, WNK43) or sodium orthovanadate in an interface chamber containing artificial cerebrospinal fluid (ACSF) composed of (in mM): D-glucose 10, KCl 3.5, NaHOC3 26, NaH2PO4 1.25, NaCl 126, CaCl2) 1.6 and MgCl2 1.2 (290 mOsm), equilibrated with 5% CO2 in 95% 02. After the treatments, slices were washed with cold PBS, instantaneously frozen with liquid nitrogen and stored at −80° C.
Slices were mechanically lysed on ice, using a 2 mL Dounce, in a buffer containing (in mM): Tris/HCl, pH 7.5 50, EGTA 1, EDTA 1, sodium orthovanadate 1, sodium-B-glycerophosphate 10, sodium fluoride 50, sodium pyrophosphate 5, sucrose 270, benzamidine 1, phenylmethylsulfonyl fluoride 2, Triton […], (v/v) 2-mercaptoethanol 0.1% and protease inhibitors (Roche). After complete homogenization, samples were centrifuged (16,000×g at 4° C. for 10 min) and the supernatant was collected. Protein quantification was done using Pierce BCA Protein Assay kit (Thermo Scientific) with BSA as standard.
Samples were subjected to electrophoresis on polyacrylamide gradient gels (4-12% bis-tris gels) and transferred to nitrocellulose membranes. Membranes were rinsed with TBS-tween solution (TBST; Invitrogen) and blocked with 5% (w/v) skim milk. […] Fluorescence was detected and the relative intensities of immunoblot bands were determined using Odyssey infrared imaging system (LI-COR Bioscience). […]

Regarding `O=C1N=C(N2CCCCN2)S/C1=C\c1ccc(F)cc1O` [CLP257, (5Z)-5-[(4-Fluoro-2-hydroxyphenyl)methylene]-2-(tetrahydro-1-(2H)-pyridazinyl)-4(5H)-thiazolone], for the setting “100 μM CLP257, 2 h”, the “change of SPAK phosphorylation (S373 residue)” value is reported as “+33.30±24.00%” and the “change of total expression of SPAK” value is −5.97±17.4%.
On to `CN1CCN(CCCN2c3ccccc3Sc3ccc(Cl)cc32)CC1` [PCPZ, prochlorperazine], for which, under “10 μM PCPZ, 2 h”, the “change of SPAK phosphorylation (S373 residue)” value is “+36.90±48.40%”.
